Holding throughout (type): functional
Assay [1] deals with T-cell. Nature of the assay: Immunosuppressive activity in C57BL/6 female mouse T-cells isolated from spleen assessed as inhibition of LPS-induced IFN-gamma secretion at 20 uM treated for 48 hrs by ELISA based assay relative to control. The settings on record: for inhibition at 20 µM: C57BL/6, T-cell.
Assay [2] has as its system T-cell. As to the kind of experiment: Inhibition of proliferation of C57BL/6 female mouse T-cells isolated from spleen at 20 uM relative to control. To be noted: for inhibition at 20 µM: C57BL/6, T-cell.
Assay [3] concerns T-cell. As to the kind of experiment: Immunosuppressive activity in C57BL/6 female mouse T-cells isolated from spleen assessed as inhibition of LPS-induced IFN-gamma secretion treated for 48 hrs by ELISA based assay. The settings on record: C57BL/6, T-cell. Background: In an ELISA, binding on a coated surface is turned into a signal by an enzyme label.

For orientation: inhibition means the drop in the measured response relative to a control, in per cent. Take `CC(C)=CC(=O)[C@@]1(O)[C@@H](C)[C@@H]2CC[C@H](C)[C@H]2C(=O)[C@]1(O)[C@@H](C)CCc1occc1C`: the values for the inhibition at 20 µM in assay [1] and in assay [2] were 41.6% and below 10%, respectively.
As for `CC(C)=C[C@H]1O[C@@](C)(CC[C@@H]2OC(=O)C=C2C)C2=C1[C@@H](C)[C@@H]1CC[C@H](C)[C@]1(O)C2=O`, the inhibition at 20 µM in assay [1] is 18.7%; in assay [2] it was below 10%.
With `CC(C)=C[C@H]1O[C@@](C)(CCO)C2=C1[C@@H](C)[C@@H]1CC[C@H](C)[C@]1(O)C2=O`, the inhibition at 20 µM in assay [1] is 39.6%; in assay [2] it was below 10%.
For `CC(C)=CC(=O)[C@@]1(O)[C@@H](C)[C@@H]2CC[C@H](C)[C@H]2C(=O)[C@]1(O)[C@@H](C)CC[C@@H]1OC(=O)C=C1C`, in that order: 32.1% and below 10%.
With `CC(C)=C[C@H]1O[C@@](C)(CC[C@@]2(O)OC(=O)C=C2C)C2=C1[C@@H](C)[C@@H]1CC[C@H](C)[C@]1(O)C2=O`, the inhibition at 20 µM in assay [1] is 22.4%; in assay [2], below 10%.
What is called IC50 is the concentration at which inhibition is half-maximal. On to `CC(C)=C[C@H]1O[C@@](C)(C[C@H]2C(=O)C(C)=C[C@@H]2O)[C@@H]2C(=O)[C@@]3(O)[C@@H](C)CC[C@H]3[C@H](C)[C@@]21O`, for which the results for the inhibition at 20 µM in assay [1] and in assay [2] were 57.3% and 11.8%, respectively. Also, the IC50 in assay [3] is 11.6 µM.
As for `CC(C)=C[C@H]1O[C@@](C)(CC(=O)O)C2=C1[C@@H](C)[C@@H]1CC[C@H](C)[C@H]1C2=O`, the inhibition at 20 µM is 39.9% in assay [1] and 25% in assay [2].
Regarding `CC(C)=C[C@H]1O[C@@](C)(CCC(=O)O)C2=C1[C@@H](C)[C@@H]1CC[C@H](C)[C@]1(O)C2=O`, the inhibition at 20 µM in assay [1] worked out at 37.9%; in assay [2], 20.2%.
As to `CC(C)=C[C@H]1O[C@@](C)(C/C=C2/OC(=O)C=C2C)C2=C1[C@@H](C)[C@@H]1CC[C@H](C)[C@@]1(O)C2=O`, the inhibition at 20 µM in assay [1] is 32.5%; in assay [2], below 10%.
For `CC(C)=CC(=O)[C@]12O[C@@H]([C@]3(O)OC(=O)C=C3C)C[C@H](C)[C@@]1(O)C(=O)[C@H]1[C@@H](CC[C@@H]1C)[C@@H]2C`, in that order: 36.9% and below 10%.
Regarding `CC(C)=C[C@H]1O[C@@](C)(CCc2occc2C)[C@@H]2C(=O)[C@@]3(O)[C@@H](C)CC[C@H]3[C@H](C)[C@@]21O`, the inhibition at 20 µM worked out at 40.4% in assay [1] and 16.8% in assay [2].
As to `CC(C)=C[C@H]1O[C@@](C)(C[C@@H]2C(=O)C(C)=C[C@H]2O)[C@@H]2C(=O)[C@@]3(O)[C@@H](C)CC[C@H]3[C@H](C)[C@@]21O`, the inhibition at 20 µM in assay [1] stood at 65.3%; in assay [2], 11%. Further, in assay [3], the IC50 came out at 11.9 µM.
Turning to `CC(C)=CC(=O)[C@@]1(O)[C@@H](C)[C@@H]2CC[C@H](C)[C@H]2C(=O)[C@@]12O[C@@H](c1occc1C)C[C@H]2C`, the inhibition at 20 µM is 63.4% in assay [1] and below 10% in assay [2]. Moreover, in assay [3], the IC50 stood at 16.7 µM.
With `CC(C)=C[C@H]1O[C@@](C)(CC[C@@H]2OC(=O)C=C2C)C2=C1[C@@H](C)[C@@H]1CC[C@H](C)[C@@H]1C2=O`, the inhibition at 20 µM in assay [1] is 31.3%; in assay [2], below 10%.
Take `CC(C)=C[C@H]1O[C@@]2(C)C[C@H]([C@H]3NC(=O)C=C3C)O[C@]13[C@H]2C(=O)[C@H]1[C@@H](CC[C@@H]1C)[C@@H]3C`: the inhibition at 20 µM in assay [1] is 43.1%; in assay [2], 13.1%.
As for `CC(C)=C[C@H]1O[C@@]2(C)C[C@H]([C@]3(O)OC(=O)C=C3C)O[C@]13[C@H]2C(=O)[C@@]1(O)[C@@H](C)CC[C@H]1[C@@H]3C`, the inhibition at 20 µM in assay [1] came out at 43.6%; in assay [2], 26%.
Regarding `CC(C)=CC(=O)[C@@]1(O)[C@@H](C)[C@@H]2CC[C@H](C)[C@H]2C(=O)[C@@]12OC(=O)C[C@@H]2C`, the inhibition at 20 µM in assay [1] is 39.6%; in assay [2], below 10%.
As for `CC(C)=CC1O[C@@]2(C)CC[C@]3(OC(=O)C=C3C)O[C@]13[C@H]2C(=O)[C@@]1(O)[C@@H](C)CC[C@H]1[C@@H]3C` (some centres not stated), the figures for the inhibition at 20 µM in assay [1] and in assay [2] were 40.9% and below 10%, respectively.
Regarding `CCC(=O)CC[C@H](C)[C@@]1(O)C(=O)[C@H]2[C@@H](CC[C@@H]2C)[C@H](C)[C@]1(O)C(=O)C=C(C)C`, the figures for the inhibition at 20 µM in assay [1] and in assay [2] were 32.6% and below 10%, respectively.
As to `CC(C)=C[C@H]1O[C@@](C)(C/C=C2\NC(=O)C=C2C)[C@@H]2C(=O)[C@H]3[C@@H](CC[C@@H]3C)[C@H](C)[C@@]21O`, the inhibition at 20 µM in assay [1] was 16.9%; in assay [2], below 10%.
In the case of `CC(C)=C[C@H]1O[C@@](C)(CCc2occc2C)[C@@H]2C(=O)[C@H]3[C@@H](CC[C@@H]3C)[C@H](C)[C@@]21O`, the inhibition at 20 µM came to 63.9% in assay [1] and 12.3% in assay [2]. Besides, the IC50 in assay [3] was 9.8 µM.
As to `CC(C)=C[C@H]1O[C@@](C)(C/C=C2\NC(=O)C=C2C)[C@@H]2C(=O)[C@@H]3[C@@H](CC[C@@H]3C)[C@H](C)[C@@]21O`, the inhibition at 20 µM was found to be 56.4% in assay [1] and 13.8% in assay [2]. The IC50 in assay [3] was 19.6 µM.
In the case of `CC(C)=C[C@H]1O[C@@](C)(CC[C@@H]2OC(=O)C=C2C)[C@@H]2C(=O)[C@@]3(O)[C@@H](C)CC[C@H]3[C@H](C)[C@@]21O`, the inhibition at 20 µM amounted to 39.1% in assay [1] and 13.2% in assay [2].
As to `CC(C)=C[C@H]1O[C@@](C)(CCc2occc2C)[C@@H]2C(=O)[C@@H]3[C@@H](CC[C@@H]3C)[C@H](C)[C@@]21O`, the values for the inhibition at 20 µM in assay [1] and in assay [2] were 53.7% and below 10%, respectively. For the same compound, the IC50 in assay [3] was determined as 19.9 µM.
For `CC(C)=C[C@H]1O[C@@](C)(CC=O)C2=C1[C@@H](C)[C@@H]1CC[C@H](C)[C@]1(O)C2=O`, the inhibition at 20 µM in assay [1] was 65.4%; in assay [2], below 10%. In addition, the IC50 in assay [3] turned out to be 8.48 µM.
As to `CC(C)=C[C@H]1O[C@@]2(C)C[C@H](c3occc3C)O[C@]13[C@H]2C(=O)[C@H]1[C@@H](CC[C@@H]1C)[C@@H]3C`, the inhibition at 20 µM in assay [1] stood at 49.7%; in assay [2], 13.6%.
On to `CC(C)=CC(=O)[C@@]1(O)[C@@H](C)[C@@H]2CC[C@H](C)[C@H]2C(=O)[C@]1(O)[C@H](C)CCc1occc1C`, for which the inhibition at 20 µM in assay [1] was found to be 73.6%; in assay [2], 27.9%. Also, the IC50 in assay [3] was found to be 5.59 µM.
Turning to `CC(C)=C[C@H]1O[C@@](C)(C/C=C2\NC(=O)C=C2C)C2=C1[C@@H](C)[C@@H]1CC[C@H](C)[C@]1(O)C2=O`, the inhibition at 20 µM in assay [1] was 66%; in assay [2] it was 10.4%. Moreover, the IC50 in assay [3] came out at 26.8 µM.
Turning to `CC(C)=C[C@H]1O[C@@](C)(CCc2occc2C)[C@@H]2C(=O)[C@]3(O)[C@@H](C)CC[C@H]3[C@H](C)[C@@]21O`, the inhibition at 20 µM in assay [1] is 56.8%; in assay [2], below 10%. Also, in assay [3], the IC50 turned out to be 9.15 µM.
For the compound `CC(C)=C[C@H]1O[C@@](C)(CCC(=O)O)C2=C1[C@@H](C)[C@@H]1CC[C@H](C)[C@H]1C2=O`, the inhibition at 20 µM was found to be 45.9% in assay [1] and 18.2% in assay [2].
Take `CC(C)=C[C@H]1O[C@@](C)(C/C=C2\OC(=O)C=C2C)[C@@H]2C(=O)[C@]3(O)[C@@H](C)CC[C@H]3[C@H](C)[C@@]21O`: the inhibition at 20 µM was 45.4% in assay [1] and below 10% in assay [2].
The corresponding values for `CC(C)=CC(=O)[C@@]1(O)[C@@H](C)[C@@H]2CC[C@H](C)[C@H]2C(=O)[C@]1(O)[C@@H](C)CC[C@]1(O)OC(=O)C=C1C` are 48.6% and below 10%.
As to `CC(C)=CC(=O)[C@]12O[C@]3(CC[C@H](C)[C@@]1(O)C(=O)[C@H]1[C@@H](CC[C@@H]1C)[C@@H]2C)OC(=O)C=C3C`, the inhibition at 20 µM in assay [1] is 43.3%; in assay [2], below 10%.
Regarding Norleucosceptroid K, the inhibition in assay [1] stood at 33.6%; in assay [2], 12.1%.
For `CC(C)=C[C@H]1O[C@@](C)(CC[C@@]2(O)OC(=O)C=C2C)[C@@H]2C(=O)[C@@H]3[C@@H](CC[C@@H]3C)[C@H](C)[C@@]21O`, the figures for the inhibition at 20 µM in assay [1] and in assay [2] were 47.5% and 15.3%, respectively.
In the case of `CC(C)=C[C@H]1O[C@@](C)(CC[C@@H]2OC(=O)C=C2C)[C@@H]2C(=O)[C@@]3(OO)[C@@H](C)CC[C@H]3[C@H](C)[C@@]21O`, the inhibition at 20 µM in assay [1] was found to be 29.9%; in assay [2] it was 11.8%.
In the case of `CC(C)=C[C@H]1O[C@@](C)(CC[C@@H]2OC(=O)C=C2C)[C@@H]2C(=O)[C@@H]3[C@@H](CC[C@@H]3C)[C@H](C)[C@@]21O`, the results for the inhibition at 20 µM in assay [1] and in assay [2] were 37.1% and 25.4%, respectively.
Consider `CC(C)=C[C@H]1O[C@@](C)(C/C=C2\NC(=O)C=C2C)[C@@H]2C(=O)[C@@]3(O)[C@@H](C)CC[C@H]3[C@H](C)[C@@]21O`, for which the inhibition at 20 µM in assay [1] was 44%; in assay [2] it was below 10%.
Regarding `CC(C)=C[C@H]1O[C@@](C)(CC[C@@]2(O)OC(=O)C=C2C)C2=C1[C@@H](C)[C@@H]1CC[C@H](C)[C@@]1(O)C2=O`, the inhibition at 20 µM in assay [1] is 36.8%; in assay [2] it was below 10%.
With `CC(C)=CC(=O)[C@@]1(O)[C@@H](C)[C@@H]2CC[C@H](C)[C@H]2C(=O)[C@@]12O[C@@H](c1occc1C)C[C@@H]2C`, the results for the inhibition at 20 µM in assay [1] and in assay [2] were 34.6% and below 10%, respectively.
Turning to `CC(C)=CC(=O)[C@@]1(O)[C@@H](C)[C@@H]2CC[C@H](C)[C@H]2C(=O)[C@]1(O)[C@H](C)CC[C@]1(O)OC(=O)C=C1C`, the results for the inhibition at 20 µM in assay [1] and in assay [2] were 41.3% and 11.7%, respectively.

The values are drawn from ChEMBL document CHEMBL5532671, “Leucosceptrane Sesterterpenoids as a New Type of Natural Immunosuppressive Agents in Treating Sepsis” (J Med Chem, 2024).
